Where a name gives a salt, the structure may show the parent alone. ± gives the standard deviation of the averaged measurements.
What was measured:
Details in all cases: 72 h
Caco-2 [1] = experiment: cell viability relative to DMSO; higher = less toxic
Calu-3 [2] = experiment: as above
HepG2 [3] = experiment: as above
U2OS [4] = experiment: as above
Vero E6 [5] = experiment: as above
Caco-2 [6] = experiment: relative viability EC50 (midpoint between 100% and the lowest measured viability); higher = less toxic
Calu-3 [7] = experiment: as above
HepG2 [8] = experiment: as above
U2OS [9] = experiment: as above
Vero E6 [10] = experiment: as above
Caco-2 [11] = experiment: drug sensitivity score (DSS) for viability; higher = more toxic; extreme values may be limits of the assay
Calu-3 [12] = experiment: as above
HepG2 [13] = experiment: as above
U2OS [14] = experiment: as above
Vero E6 [15] = experiment: as above

SMILES | cell viability (Caco-2 [1]; 1 nM) | cell viability (Caco-2 [1]; 10 nM) | cell viability (Caco-2 [1]; 100 nM) | cell viability (Caco-2 [1]; 1000 nM) | cell viability (Caco-2 [1]; 10000 nM) | cell viability (Calu-3 [2]; 1 nM) | cell viability (Calu-3 [2]; 10 nM) | cell viability (Calu-3 [2]; 100 nM) | cell viability (Calu-3 [2]; 1000 nM) | cell viability (Calu-3 [2]; 10000 nM) | cell viability (HepG2 [3]; 1 nM) | cell viability (HepG2 [3]; 10 nM) | cell viability (HepG2 [3]; 100 nM) | cell viability (HepG2 [3]; 1000 nM) | cell viability (HepG2 [3]; 10000 nM) | cell viability (U2OS [4]; 1 nM) | cell viability (U2OS [4]; 10 nM) | cell viability (U2OS [4]; 100 nM) | cell viability (U2OS [4]; 1000 nM) | cell viability (U2OS [4]; 10000 nM) | cell viability (Vero E6 [5]; 1 nM) | cell viability (Vero E6 [5]; 10 nM) | cell viability (Vero E6 [5]; 100 nM) | cell viability (Vero E6 [5]; 1000 nM) | cell viability (Vero E6 [5]; 10000 nM) | relative viability EC50 (Caco-2 [6]) | relative viability EC50 (Calu-3 [7]) | relative viability EC50 (HepG2 [8]) | relative viability EC50 (U2OS [9]) | relative viability EC50 (Vero E6 [10]) | drug sensitivity score (Caco-2 [11]) | drug sensitivity score (Calu-3 [12]) | drug sensitivity score (HepG2 [13]) | drug sensitivity score (U2OS [14]) | drug sensitivity score (Vero E6 [15])
COc1cccc2c1C(=O)c1c(O)c3c(c(O)c1C2=O)C[C@@](O)(C(=O)CO)C[C@@H]3O[C@H]1C[C@H](N)[C@@H](O)[C@H](C)O1 [Epirubicin Hydrochloride] | 95.8 ± 5.9% | 97 ± 6.3% | 89 ± 1.4% | 40.8 ± 1.2% | 30.9 ± 1.7% | 101 ± 3.3% | 102 ± 6.4% | 80 ± 6.6% | 41.2 ± 1.1% | 30.4 ± 0.49% | 102.8 ± 0.14% | 93.2 ± 12% | 49.7 ± 0.57% | 12.25 ± 0.071% | 4.25 ± 0.64% | 95.5 ± 1.4% | 99.7 ± 0.28% | 90.2 ± 1.8% | 17.1 ± 9.9% | 3.15 ± 1.3% | 100 ± 2% | 96.5 ± 2% | 96 ± 3.5% | 71.1 ± 3.7% | 34.4 ± 8% | 0.3 µM | 0.224 µM | 0.0903 µM | 0.349 µM | 1.13 µM | 12.3 ± 0.35 | 13.3 ± 0.99 | 22.9 ± 0.14 | 16.6 ± 1.5 | 7
CC(=O)Nc1ccc(Cc2ccc(NC(C)=O)cc2)cc1 [FH1] | 107% | 100% | 104% | 93.7% | 102% | 95.7% | 99.9% | 84.2% | 92.8% | 104% | 99.5% | 104% | 107% | 102% | 96.8% | 98.8% | 96.6% | 99.4% | 104% | 103% | 99.8% | 98.1% | 96.8% | 102% | 98.9% | > 10 µM | > 10 µM | > 10 µM | > 10 µM | > 10 µM | 0 | 0 | 0 | 0 | 0
NC(N)=Nc1nc(CSCC/C(N)=N/S(N)(=O)=O)cs1 [Famotidine] | 101% | 101% | 93.9% | 96.8% | 96.8% | 84% | 106% | 89.8% | 106% | 90.1% | 101% | 97.4% | 87.9% | 100% | 85.4% | 98% | 104% | 98.6% | 108% | 97.5% | 106% | 105% | 95.2% | 102% | 96.7% | > 10 µM | > 10 µM | > 10 µM | > 10 µM | > 10 µM | 0 | 0 | 0 | 0 | 0
O=C(O)Cc1cccc(OCCCN(Cc2cccc(C(F)(F)F)c2Cl)CC(c2ccccc2)c2ccccc2)c1 [GW-3965] | 92.8% | 107% | 97.8% | 98.1% | 77.7% | 93.6% | 101% | 108% | 114% | 98.8% | 90.9% | 99.3% | 116% | 97.5% | 92.5% | 100% | 99.2% | 98.2% | 101% | 95.6% | 112% | 98.8% | 100% | 101% | 104% | > 10 µM | > 10 µM | > 10 µM | > 10 µM | > 10 µM | 1 | 0 | 0 | 0 | 0
